# In US20100298141A1, “SUBSTITUTED PYRIDINE N-OXIDE HERBICIDES” (E. I. DU PONT DE NEMOURS AND COMPANY, priority 2007, published 2010):
# Assays:
# Assay in all cases: Test F preemergence test
# Surinam grass = type: in vivo, Brachiaria decumbens; details: scale 0 to 100
# How it was run: (§1)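 Greenhouse screen: test chemical in surfactant-containing non-phytotoxic solvent applied preemergence to sown seeds or postemergence to sugarcane plants; after 14 to 21 days each species scored visually versus controls.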
# large crabgrass = type: in vivo, Digitaria sanguinalis; details: scale 0 to 100
# How it was run: as §1
# kochia = type: in vivo, Kochia scoparia; details: scale 0 to 100
# How it was run: as §1
# mustard = type: in vivo, Brassica nigra; details: scale 0 to 100
# How it was run: as §1
# guineagrass = type: in vivo, Panicum maximum; details: scale 0 to 100
# How it was run: as §1
# dallisgrass = type: in vivo, Paspalum dilatatum; details: scale 0 to 100
# How it was run: as §1
# barnyardgrass = type: in vivo, Echinochloa crus-galli
# How it was run: as §1
# southern sandbur = type: in vivo, Cenchrus echinatus; details: scale 0 to 100
# How it was run: as §1
# Italian ryegrass = type: in vivo, Lolium multiflorum; details: scale 0 to 100
# How it was run: as §1
# common purslane = type: in vivo, Portulaca oleracea; details: scale 0 to 100
# How it was run: as §1
# common groundsel = type: in vivo, Senecio vulgaris; details: scale 0 to 100
# How it was run: as §1
# Virginia dayflower = type: in vivo, Commelina virginica; details: scale 0 to 100
# Source text: Seeds of plant species selected from bermudagrass (Cynodon dactylon), Surinam grass (Brachiaria decumbens), large crabgrass (Digitaria sanguinalis), green foxtail (Setaria viridis), goosegrass (Eleusine indica), johnsongrass (Sorghum halepense), kochia (Kochia scoparia), pitted morningglory (Ipomoea lacunosa), purple nutsedge (Cyperus rotundus), common ragweed (Ambrosia elation), mustard (Brassica nigra), guineagrass (Panicum maximum), […] (Paspalum dilatatum), barnyardgrass (Echinochloa crus-galli), southern sandbur (Cenchrus echinatus), common sowthistle (Sonchus oleraceous), prickly […] spinosa), Italian ryegrass (Lolium multiflorum), common purslane (Portulaca oleracea), broadleaf signalgrass (Brachiaria platyphylla), common groundsel (Senecio vulgaris), common chickweed (Stellaria media), Virginia dayflower (Commelina virginica), annual bluegrass (Poa annua), naked crabgrass (Digitaria nuda), […] cochinchinensis), quackgrass (Elytrigia repens), Canada horseweed (Conyza canadensis), field bindweed (Convolvulus arvensis), […] (Bidens bipinnata), common mallow (Malva sylvestris), Russian thistle (Salsola kali), and sugarcane (Saccharum officinarum) were planted and treated preemergence with test chemicals formulated in a non-phytotoxic solvent mixture which included a surfactant. At a different time, sugarcane was treated with postemergence applications of some of the test chemicals formulated in the same manner. Plants were approximately 3- to 4-leaf stage for the postemergence treatments. Treated plants and controls were maintained in a greenhouse for 14 to 21 days, after which time all species were compared to controls and visually evaluated. […] A dash (-) response means no test result.
# annual bluegrass = type: in vivo, Poa annua; details: scale 0 to 100
# How it was run: as §1
# quackgrass = type: in vivo, Elytrigia repens; details: scale 0 to 100
# How it was run: as §1
# field bindweed = type: in vivo, Convolvulus arvensis; details: scale 0 to 100
# How it was run: as §1
# common mallow = type: in vivo, Malva sylvestris; details: scale 0 to 100
# How it was run: as §1
# [1] = Preemergence, 31 g ai/ha, scale 0 to 100
smiles,measurement,setting,value
Cc1cc[n+]([O-])c(S(=O)(=O)Cc2c(C(F)(F)F)nn(C)c2OC(F)F)c1 [Compound 2],"Plant response rating, Surinam Grass","Surinam grass; 8 g ai/ha, preemergence",0
same,"Plant response rating, Surinam Grass","Surinam grass; 16 g ai/ha, preemergence",0
same,Surinam Grass plant response rating,"Surinam grass; 62 g ai/ha, Preemergence",100
same,"Plant response rating, Surinam Grass","Surinam grass; Preemergence, 31 g ai/ha",60
same,"Plant response rating, Crabgrass, Large","large crabgrass; 8 g ai/ha, preemergence",0
same,"Crabgrass, Large plant response rating","large crabgrass; 62 g ai/ha, Preemergence",90
same,"Plant response rating, Crabgrass, Large","large crabgrass; Preemergence, 16 g ai/ha",0
same,"Plant response rating, Crabgrass, Large","large crabgrass; Preemergence, 31 g ai/ha",50
same,"Plant response rating, Kochia","kochia; 8 g ai/ha, preemergence",0
same,Kochia plant response rating,"kochia; 62 g ai/ha, Preemergence",75
same,"Plant response rating, Kochia","kochia; Preemergence, 16 g ai/ha",0
same,"Plant response rating, Kochia","kochia; Preemergence, 31 g ai/ha",0
same,"Plant response rating, Black Mustard","mustard; 8 g ai/ha, preemergence",0
same,Black Mustard plant response rating,"mustard; 62 g ai/ha, Preemergence",80
same,"Plant response rating, Black Mustard","mustard; Preemergence, 16 g ai/ha",25
same,"Plant response rating, Black Mustard","mustard; Preemergence, 31 g ai/ha",80
same,"Plant response rating, Guineagrass","guineagrass; 8 g ai/ha, preemergence",0
same,Guineagrass plant response rating,"guineagrass; 62 g ai/ha, Preemergence",100
same,"Plant response rating, Guineagrass","guineagrass; Preemergence, 16 g ai/ha",65
same,"Plant response rating, Guineagrass","guineagrass; Preemergence, 31 g ai/ha",90
same,"Plant response rating, Dallisgrass","dallisgrass; 8 g ai/ha, preemergence",0
same,Dallisgrass plant response rating,"dallisgrass; 62 g ai/ha, Preemergence",65
same,"Plant response rating, Dallisgrass","dallisgrass; Preemergence, 16 g ai/ha",0
same,"Plant response rating, Dallisgrass","dallisgrass; Preemergence, 31 g ai/ha",10
same,"Plant response rating, Barnyardgrass","barnyardgrass; 8 g ai/ha, preemergence, scale 0 to 100",0
same,Barnyardgrass plant response rating,"barnyardgrass; 62 g ai/ha, Preemergence, scale 0 to 100",100
same,"Plant response rating, Barnyardgrass","barnyardgrass; Preemergence, 16 g ai/ha, scale 0 to 100",10
same,"Plant response rating, Barnyardgrass",barnyardgrass; [1],80
same,"Plant response rating, Sandbur","southern sandbur; 8 g ai/ha, preemergence",0
same,"Plant response rating, Sandbur","southern sandbur; 16 g ai/ha, preemergence",0
same,Sandbur plant response rating,"southern sandbur; 62 g ai/ha, Preemergence",100
same,"Plant response rating, Sandbur","southern sandbur; Preemergence, 31 g ai/ha",30
same,"Plant response rating, Ryegrass, Italian","Italian ryegrass; 8 g ai/ha, preemergence",0
same,"Ryegrass, Italian plant response rating","Italian ryegrass; 62 g ai/ha, Preemergence",35
same,"Plant response rating, Ryegrass, Italian","Italian ryegrass; Preemergence, 16 g ai/ha",0
same,"Plant response rating, Ryegrass, Italian","Italian ryegrass; Preemergence, 31 g ai/ha",20
same,"Plant response rating, Purslane","common purslane; 8 g ai/ha, preemergence",0
same,Purslane plant response rating,"common purslane; 62 g ai/ha, Preemergence",50
same,"Plant response rating, Purslane","common purslane; Preemergence, 16 g ai/ha",0
same,"Plant response rating, Purslane","common purslane; Preemergence, 31 g ai/ha",40
same,"Plant response rating, Groundsel","common groundsel; 8 g ai/ha, preemergence",0
same,Groundsel plant response rating,"common groundsel; 62 g ai/ha, Preemergence",50
same,"Plant response rating, Groundsel","common groundsel; Preemergence, 16 g ai/ha",0
same,"Plant response rating, Groundsel","common groundsel; Preemergence, 31 g ai/ha",50
same,"Plant response rating, Dayflower","Virginia dayflower; 8 g ai/ha, preemergence",0
same,Dayflower plant response rating,"Virginia dayflower; 62 g ai/ha, Preemergence",100
same,"Plant response rating, Dayflower","Virginia dayflower; Preemergence, 16 g ai/ha",0
same,"Plant response rating, Dayflower","Virginia dayflower; Preemergence, 31 g ai/ha",100
same,"Plant response rating, Bluegrass","annual bluegrass; 8 g ai/ha, preemergence",0
same,Bluegrass plant response rating,"annual bluegrass; 62 g ai/ha, Preemergence",25
same,"Plant response rating, Bluegrass","annual bluegrass; Preemergence, 16 g ai/ha",0
same,"Plant response rating, Bluegrass","annual bluegrass; Preemergence, 31 g ai/ha",15
same,"Plant response rating, Quackgrass","quackgrass; 8 g ai/ha, preemergence",0
same,Quackgrass plant response rating,"quackgrass; 62 g ai/ha, Preemergence",60
same,"Plant response rating, Quackgrass","quackgrass; Preemergence, 16 g ai/ha",0
same,"Plant response rating, Quackgrass","quackgrass; Preemergence, 31 g ai/ha",20
same,"Plant response rating, Field Bindweed","field bindweed; 8 g ai/ha, preemergence",0
same,Field Bindweed plant response rating,"field bindweed; 62 g ai/ha, Preemergence",0
same,"Plant response rating, Field Bindweed","field bindweed; Preemergence, 16 g ai/ha",0
same,"Plant response rating, Field Bindweed","field bindweed; Preemergence, 31 g ai/ha",0
same,"Plant response rating, Mallow","common mallow; 8 g ai/ha, preemergence",0
same,Mallow plant response rating,"common mallow; 62 g ai/ha, Preemergence",35
same,"Plant response rating, Mallow","common mallow; Preemergence, 16 g ai/ha",0
same,"Plant response rating, Mallow","common mallow; Preemergence, 31 g ai/ha",0
CC(Oc1c(CS(=O)(=O)c2cccc[n+]2[O-])c(C(F)(F)F)nn1C)C(F)(F)F (stereo not drawn) [Compound 82],"Plant response rating, Surinam Grass","Surinam grass; 16 g ai/ha, preemergence",0
same,Surinam Grass plant response rating,"Surinam grass; 125 g ai/ha, preemergence",100
same,"Plant response rating, Surinam Grass","Surinam grass; Preemergence, 62 g ai/ha",90
same,"Plant response rating, Surinam Grass","Surinam grass; Preemergence, 31 g ai/ha",30
same,"Plant response rating, Crabgrass, Large","large crabgrass; 16 g ai/ha, preemergence",0
same,"Crabgrass, Large plant response rating","large crabgrass; 125 g ai/ha, preemergence",100
same,"Plant response rating, Crabgrass, Large","large crabgrass; Preemergence, 62 g ai/ha",90
same,"Plant response rating, Crabgrass, Large","large crabgrass; Preemergence, 31 g ai/ha",50
same,"Plant response rating, Kochia","kochia; 16 g ai/ha, preemergence",100
same,Kochia plant response rating,"kochia; 125 g ai/ha, preemergence",100
same,"Plant response rating, Kochia","kochia; Preemergence, 62 g ai/ha",100
same,"Plant response rating, Kochia","kochia; Preemergence, 31 g ai/ha",100
same,"Plant response rating, Black Mustard","mustard; 16 g ai/ha, preemergence",0
same,Black Mustard plant response rating,"mustard; 125 g ai/ha, preemergence",100
same,"Plant response rating, Black Mustard","mustard; Preemergence, 62 g ai/ha",50
same,"Plant response rating, Black Mustard","mustard; Preemergence, 31 g ai/ha",0
same,"Plant response rating, Guineagrass","guineagrass; 16 g ai/ha, preemergence",70
same,Guineagrass plant response rating,"guineagrass; 125 g ai/ha, preemergence",100
same,"Plant response rating, Guineagrass","guineagrass; Preemergence, 62 g ai/ha",95
same,"Plant response rating, Guineagrass","guineagrass; Preemergence, 31 g ai/ha",70
same,"Plant response rating, Dallisgrass","dallisgrass; 16 g ai/ha, preemergence",20
same,Dallisgrass plant response rating,"dallisgrass; 125 g ai/ha, preemergence",90
same,"Plant response rating, Dallisgrass","dallisgrass; Preemergence, 62 g ai/ha",40
same,"Plant response rating, Dallisgrass","dallisgrass; Preemergence, 31 g ai/ha",20
same,"Plant response rating, Barnyardgrass","barnyardgrass; 16 g ai/ha, preemergence, scale 0 to 100 (0 no effect, 100 complete control)",50
same,Barnyardgrass plant response rating,"barnyardgrass; 125 g ai/ha, preemergence, scale 0 to 100",100
same,"Plant response rating, Barnyardgrass","barnyardgrass; Preemergence, 62 g ai/ha, scale 0 to 100",80
same,"Plant response rating, Barnyardgrass",barnyardgrass; [1],70
same,Sandbur plant response rating,"southern sandbur; 125 g ai/ha, preemergence",95
same,"Plant response rating, Sandbur","southern sandbur; Preemergence, 62 g ai/ha",60
same,"Plant response rating, Sandbur","southern sandbur; Preemergence, 31 g ai/ha",60
same,"Plant response rating, Ryegrass, Italian","Italian ryegrass; 16 g ai/ha, preemergence",35
same,"Ryegrass, Italian plant response rating","Italian ryegrass; 125 g ai/ha, preemergence",100
same,"Plant response rating, Ryegrass, Italian","Italian ryegrass; Preemergence, 62 g ai/ha",75
same,"Plant response rating, Ryegrass, Italian","Italian ryegrass; Preemergence, 31 g ai/ha",75
same,"Plant response rating, Purslane","common purslane; 16 g ai/ha, preemergence",0
same,Purslane plant response rating,"common purslane; 125 g ai/ha, preemergence",35
same,"Plant response rating, Purslane","common purslane; Preemergence, 62 g ai/ha",30
same,"Plant response rating, Groundsel","common groundsel; 16 g ai/ha, preemergence",0
same,Groundsel plant response rating,"common groundsel; 125 g ai/ha, preemergence",90
same,"Plant response rating, Groundsel","common groundsel; Preemergence, 62 g ai/ha",30
same,"Plant response rating, Groundsel","common groundsel; Preemergence, 31 g ai/ha",0
same,Dayflower plant response rating,"Virginia dayflower; 125 g ai/ha, preemergence",100
same,"Plant response rating, Dayflower","Virginia dayflower; Preemergence, 62 g ai/ha",90
same,"Plant response rating, Bluegrass","annual bluegrass; 16 g ai/ha, preemergence",0
same,Bluegrass plant response rating,"annual bluegrass; 125 g ai/ha, preemergence",100
same,"Plant response rating, Bluegrass","annual bluegrass; Preemergence, 62 g ai/ha",70
same,"Plant response rating, Bluegrass","annual bluegrass; Preemergence, 31 g ai/ha",60
same,"Plant response rating, Quackgrass","quackgrass; 16 g ai/ha, preemergence",70
same,Quackgrass plant response rating,"quackgrass; 125 g ai/ha, preemergence",100
same,"Plant response rating, Quackgrass","quackgrass; Preemergence, 62 g ai/ha",95
same,"Plant response rating, Quackgrass","quackgrass; Preemergence, 31 g ai/ha",70
same,"Plant response rating, Field Bindweed","field bindweed; 16 g ai/ha, preemergence",0
same,Field Bindweed plant response rating,"field bindweed; 125 g ai/ha, preemergence",0
same,"Plant response rating, Field Bindweed","field bindweed; Preemergence, 62 g ai/ha",0
same,"Plant response rating, Field Bindweed","field bindweed; Preemergence, 31 g ai/ha",0
